Data reported in patent US10934309B2, “Tricyclic quinone derivative” (Boston Biomedical, Inc., priority 2014, dated 2021).

Tests used:
Type in all cases: cell-based, human
[1] = tested on: FaDu cells; test: Inhibition assay of cancer cell sphere-forming ability (Test Example 2), FaDu; details: FaDu cells, Ultra-Low Attachment plate, serum-free DMEM/F12 with B27, EGF, bFGF, insulin, 4 days, Cell Titer-Glo, read-out: IC50 (μM) FaDu, concentration for 50% inhibition of cell proliferation (Sphere IC50 value)
Experimental: (§1) HCT-116 cells (derived from human colon adenocarcinoma), HT-29 cells (derived from human colon cancer), FaDu cells (derived from human hypopharynx cancer) were obtained from American Type Culture Collection (ATCC). […] HCT-116 cells, HT-29 cells, and FaDu cells were seeded onto 384 Well Black Clear Bottom Ultra-Low Attachment Microplate (Corning Cat. […] A test substance was added so that the final concentration of DMSO is 0.1%, and then cultured for 4 days. […] A test shown in Test example 2 was carried out for compounds obtained in the Examples.

[2] = tested on: HT-29 cells; test: Proliferation inhibition assay of cancer cells (Test Example 1), HT-29; details: HT-29 cells, cultured for 4 days, Cell Titer-Glo, read-out: IC50 (μM) HT, concentration for 50% inhibition of cell proliferation (Bulk IC50 value)
Experimental: (§2) HCT-116 cells (derived from human colon adenocarcinoma), HT-29 cells (derived from human colon cancer), and FaDu cells (derived from human hypopharynx cancer) were obtained from American Type Culture Collection (ATCC). […] After cells were seeded at 300-600 cells/well onto black μClear-plate 384 well (Greiner bio-one Cat. No. 781091), a test substance was added such that the final concentration of DMSO is 0.1%, and cultured for 4 days. […] A test shown in Test example 1 was carried out for compounds obtained in the Examples.

[3] = tested on: HCT-116 cells; test: Inhibition assay of cancer cell sphere-forming ability (Test Example 2), HCT-116; details: HCT-116 cells, Ultra-Low Attachment plate, serum-free DMEM/F12 with B27, EGF, bFGF, insulin, 4 days, Cell Titer-Glo, read-out: IC50 (μM) HCT, concentration for 50% inhibition of cell proliferation (Sphere IC50 value)
Experimental: as §1

[4] = tested on: FaDu cells; test: Proliferation inhibition assay of cancer cells (Test Example 1), FaDu; details: FaDu cells, cultured for 4 days, Cell Titer-Glo, read-out: IC50 (μM) FaDu, concentration for 50% inhibition of cell proliferation (Bulk IC50 value)
Experimental: as §2

[5] = tested on: HT-29 cells; test: Inhibition assay of cancer cell sphere-forming ability (Test Example 2), HT-29; details: HT-29 cells, Ultra-Low Attachment plate, serum-free DMEM/F12 with B27, EGF, bFGF, insulin, 4 days, Cell Titer-Glo, read-out: IC50 (μM) HT, concentration for 50% inhibition of cell proliferation (Sphere IC50 value)
Experimental: as §1

[6] = tested on: HCT-116 cells; test: Proliferation inhibition assay of cancer cells (Test Example 1), HCT-116; details: HCT-116 cells, cultured for 4 days, Cell Titer-Glo, read-out: IC50 (μM) HCT, concentration for 50% inhibition of cell proliferation (Bulk IC50 value)
Experimental: as §2

Compound	IC50 [1] [µM]	IC50 [2] [µM]	IC50 [3] [µM]	IC50 [4] [µM]	IC50 [5] [µM]	IC50 [6] [µM]	IC50 ([1]; Homo sapiens, FaDu, 96 h) [µM]	IC50 ([2]; Homo sapiens, HT-29, 96 h) [µM]	IC50 ([3]; Homo sapiens, HCT-116, 96 h) [µM]	IC50 ([4]; Homo sapiens, FaDu, 96 h) [µM]	IC50 ([5]; Homo sapiens, HT-29, 96 h) [µM]	IC50 ([6]; Homo sapiens, HCT-116, 96 h) [µM]
CCN(Cc1ccncc1)Cc1cc2c(s1)C(=O)c1cccnc1C2=O [Example 8, 2-{[ethyl(pyridin-4-ylmethyl)amino]methyl}thieno[2,3-g]quinoline-4,9-dione]	0.32	0.83	0.41	0.37	0.6	0.38	–	–	–	–	–	–
O=C1c2ccncc2C(=O)c2c(C(=O)N3CCOCC3)csc21 [Example 22, 3-(morpholin-4-ylcarbonyl)thieno[2,3-g]isoquinoline-4,9-dione]	–	–	–	–	–	–	0.31	0.81	0.5	0.44	0.16	0.48
CC(=O)c1cc2c(o1)C(=O)c1ccsc1C2=O [Example 56, 2-acetylthieno[2,3-f][1]benzofuran-4,8-dione]	–	–	–	–	–	–	0.08	0.62	0.06	0.56	0.58	0.09
CCN(Cc1cc2c(s1)C(=O)c1cccnc1C2=O)C1CCCCC1 [Example 5, 2-{[cyclohexyl(ethyl)amino]methyl}thieno[2,3-g]quinoline-4,9-dione]	–	–	–	–	–	–	0.5	0.92	0.39	0.54	0.57	0.45
CCOC(c1cc2c(s1)C(=O)c1ccncc1C2=O)C1CC1 (stereo not drawn) [Example 17, 2-[cyclopropyl(ethoxy)methyl]thieno[2,3-g]isoquinoline-4,9-dione]	–	–	–	–	–	–	0.05	0.87	0.55	0.84	0.54	0.41
CC(O)c1cc2c(o1)C(=O)c1ccncc1C2=O (stereo not drawn) [Example 45, 2-(1-hydroxyethyl)furo[2,3-g]isoquinoline-4,9-dione]	–	–	–	–	–	–	0.03	0.52	0.06	0.03	0.08	0.06
COC(C)c1cc2c(s1)C(=O)c1ncccc1C2=O (stereo not drawn) [Example 38, 2-(1-methoxyethyl)thieno[3,2-g]quinoline-4,9-dione]	–	–	–	–	–	–	0.28	0.66	0.55	0.44	0.59	0.55
CC(c1cc2c(s1)C(=O)c1ccncc1C2=O)N1CCOCC1 (stereo not drawn) [Example 23, 2-[1-(morpholin-4-yl)ethyl]thieno[2,3-g]isoquinoline-4,9-dione]	–	–	–	–	–	–	0.04	0.58	0.31	0.03	0.48	0.1
CCOC(=O)/C=C/c1cc2c(s1)C(=O)c1ccncc1C2=O [Example 60, ethyl (E)-3-(4,9-dioxo-4,9-dihydrothieno[2,3-g]isoquinolin-2-yl)acrylate]	–	–	–	–	–	–	0.83	> 10	7.41	0.75	8.98	2.71
CN(C)C(=O)c1cc2c(s1)C(=O)c1cccnc1C2=O [Example 3, N,N-dimethyl-4,9-dioxo-4,9-dihydrothieno[2,3-g]quinoline-2-carboxamide]	–	–	–	–	–	–	0.05	0.56	0.05	0.07	0.43	0.06
CC(C)(C)OC(=O)NCc1cc2c(s1)C(=O)c1ncccc1C2=O [Example 41, tert-butyl (4,9-dioxo-4,9-dihydrothieno[3,2-g]quinolin-2-yl)methylcarbamate]	–	–	–	–	–	–	0.46	4.52	0.83	0.78	3.82	0.7
C[C@@H]1CN(C(=O)c2cc3c(s2)C(=O)c2nccnc2C3=O)C[C@H](C)O1 [Example 58, 7-{[(2R,6S)-2,6-dimethylmorpholin-4-yl]carbonyl}thieno[2,3-g]quinoxaline-5,9-dione]	–	–	–	–	–	–	0.76	7.06	0.56	3.71	5.97	0.64
O=C(NCC(F)F)c1cc2c(s1)C(=O)c1ncccc1C2=O [Example 40, N-(2,2-difluoroethyl)-4,9-dioxo-4,9-dihydroxythieno[3,2-g]quinoline-2-carboxyamide]	0.05	0.55	0.08	0.05	0.51	0.07	–	–	–	–	–	–
CCN(Cc1ccncc1)Cc1cc2c(s1)C(=O)c1cccnc1C2=O [Example 7, 2-{[ethyl(pyridin-4-ylmethyl)amino]methyl}thieno[2,3-g]quinoline-4,9-dione]	–	2.64	–	–	3.04	–	0.36	–	0.51	0.4	–	0.4
O=C1c2cc(CN3CCOCC3)sc2C(=O)c2cccnc21 [Example 4, 2-(morpholin-4-ylmethyl)thieno[2,3-g]quinoline-4,9-dione]	–	–	–	–	–	–	0.34	0.68	0.55	0.46	0.63	0.57
CC(=O)c1cc2c(o1)C(=O)c1cccnc1C2=O [Example 42, 2-acetylfuro[2,3-g]quinoline-4,9-dione]	–	–	–	–	–	–	0.08	0.72	0.31	0.47	0.59	0.54
C#Cc1cc2c(s1)C(=O)c1ccncc1C2=O [Example 61, 2-ethynylthieno[2,3-g]isoquinoline-4,9-dione]	–	–	–	–	–	–	0.05	0.54	0.28	0.05	0.24	0.19
O=C1c2cnccc2C(=O)c2sc(COCc3ccccc3)cc21 [Example 18, 2-[(benzyloxy)methyl]thieno[2,3-g]isoquinoline-4,9-dione]	–	–	–	–	–	–	0.63	> 10	5.71	0.57	> 10	1
